Assay results from ChEMBL document CHEMBL1201862, “PubChem BioAssay data set” (2004).
Activity calls are given as the source filed them.

How the values were obtained:
[1] = target: Dual specificity tyrosine-phosphorylation-regulated kinase 1A (Rattus norvegicus, UniProt Q63470); format: biochemical, Homo sapiens
[2] = target: T1, Heat shock factor protein 1 (Mus musculus, UniProt P38532); test: decrease of HSF1-responsive luciferase luminescence – cell-based, NIH3T3, dose retest, confirmation (AID 2382); format: functional;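 note: NIH3T3 fibroblasts with HSF1-driven luciferase reporter stressed by proteasome inhibitor MG132; luminescence from HSF1-driven luciferase expression after 8 hours of MG132 stress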
T1 sequence (P38532 whole entry): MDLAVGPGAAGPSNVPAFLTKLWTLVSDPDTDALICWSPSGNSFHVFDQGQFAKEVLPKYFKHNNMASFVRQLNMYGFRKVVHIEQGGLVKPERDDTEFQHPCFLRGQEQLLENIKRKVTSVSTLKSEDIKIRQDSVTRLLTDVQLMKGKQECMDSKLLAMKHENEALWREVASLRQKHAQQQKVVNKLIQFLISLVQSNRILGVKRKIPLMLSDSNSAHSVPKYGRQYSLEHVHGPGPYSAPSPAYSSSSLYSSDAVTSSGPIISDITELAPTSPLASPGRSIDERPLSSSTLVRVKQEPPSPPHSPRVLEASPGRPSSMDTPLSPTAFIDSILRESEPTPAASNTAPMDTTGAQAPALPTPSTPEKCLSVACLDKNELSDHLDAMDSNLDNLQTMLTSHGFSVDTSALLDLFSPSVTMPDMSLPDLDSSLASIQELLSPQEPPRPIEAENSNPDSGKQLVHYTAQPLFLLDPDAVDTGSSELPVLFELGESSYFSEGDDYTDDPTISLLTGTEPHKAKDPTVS

[3] = target: Peroxisome proliferator-activated receptor gamma/Nuclear receptor coactivator 3 (Homo sapiens, UniProt P37231); test: TR-FRET dose response biochemical High Throughput Screening assay for agonists of the steroid receptor coactivator 3 (SRC-3) recruitment by the peroxisome proliferator-activated receptor gamma (PPAR gamma): non-selective agonists. [Related pubchem assays: 1301 (Confirmation screen.), 1048 (Primary screen.)]; format: functional
[4] = target: Peroxisome proliferator-activated receptor gamma/Nuclear receptor coactivator 2 (Homo sapiens, UniProt P37231); test: (§1) TR-FRET dose response biochemical High Throughput Screening assay for agonists of the steroid receptor coactivator 2 (SRC-2) recruitment by the peroxisome proliferator-activated receptor gamma (PPAR gamma): non-selective agonists. [Related pubchem assays: 1297, 1032 ]; format: functional
[5] = target: Peroxisome proliferator-activated receptor gamma/Nuclear receptor coactivator 1 (Homo sapiens, UniProt P37231); test: as §1, with “1 (SRC-1)” for “2 (SRC-2)”, “assays (depositor defined):AID1300, AID1808, AID504735, AID631]” for “assays: 1297, 1032 ]”; format: protein assay
[6] = target: T2, Type-1 angiotensin II receptor (Homo sapiens, UniProt P30556); test: antagonism of angiotensin II type 1 receptor – cell-based, uHTS hits, selectivity assay for APJ receptor antagonist project, dose response (AID 463214); format: functional;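 note: antagonist potency against angiotensin II stimulated AT1 response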
T2 sequence (P30556 whole entry): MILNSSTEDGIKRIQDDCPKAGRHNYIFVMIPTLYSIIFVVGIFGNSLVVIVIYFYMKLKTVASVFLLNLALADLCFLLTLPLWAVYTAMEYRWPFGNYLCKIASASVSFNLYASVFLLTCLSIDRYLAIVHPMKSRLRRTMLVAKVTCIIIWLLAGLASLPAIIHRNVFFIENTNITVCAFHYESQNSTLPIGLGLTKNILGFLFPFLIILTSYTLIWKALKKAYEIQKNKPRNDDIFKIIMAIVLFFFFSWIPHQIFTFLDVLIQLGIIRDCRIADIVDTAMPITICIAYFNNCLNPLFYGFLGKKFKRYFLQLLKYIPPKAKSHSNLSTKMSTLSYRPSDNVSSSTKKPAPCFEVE

Beta-galactosidase = Beta-galactosidase (Escherichia coli, UniProt Q8VNN2); test: PubChem AID 485352; format: functional
[7] = target: T3, Histone-lysine N-methyltransferase NSD2 (Homo sapiens, UniProt O96028); format: biochemical
T3 sequence (O96028 whole entry): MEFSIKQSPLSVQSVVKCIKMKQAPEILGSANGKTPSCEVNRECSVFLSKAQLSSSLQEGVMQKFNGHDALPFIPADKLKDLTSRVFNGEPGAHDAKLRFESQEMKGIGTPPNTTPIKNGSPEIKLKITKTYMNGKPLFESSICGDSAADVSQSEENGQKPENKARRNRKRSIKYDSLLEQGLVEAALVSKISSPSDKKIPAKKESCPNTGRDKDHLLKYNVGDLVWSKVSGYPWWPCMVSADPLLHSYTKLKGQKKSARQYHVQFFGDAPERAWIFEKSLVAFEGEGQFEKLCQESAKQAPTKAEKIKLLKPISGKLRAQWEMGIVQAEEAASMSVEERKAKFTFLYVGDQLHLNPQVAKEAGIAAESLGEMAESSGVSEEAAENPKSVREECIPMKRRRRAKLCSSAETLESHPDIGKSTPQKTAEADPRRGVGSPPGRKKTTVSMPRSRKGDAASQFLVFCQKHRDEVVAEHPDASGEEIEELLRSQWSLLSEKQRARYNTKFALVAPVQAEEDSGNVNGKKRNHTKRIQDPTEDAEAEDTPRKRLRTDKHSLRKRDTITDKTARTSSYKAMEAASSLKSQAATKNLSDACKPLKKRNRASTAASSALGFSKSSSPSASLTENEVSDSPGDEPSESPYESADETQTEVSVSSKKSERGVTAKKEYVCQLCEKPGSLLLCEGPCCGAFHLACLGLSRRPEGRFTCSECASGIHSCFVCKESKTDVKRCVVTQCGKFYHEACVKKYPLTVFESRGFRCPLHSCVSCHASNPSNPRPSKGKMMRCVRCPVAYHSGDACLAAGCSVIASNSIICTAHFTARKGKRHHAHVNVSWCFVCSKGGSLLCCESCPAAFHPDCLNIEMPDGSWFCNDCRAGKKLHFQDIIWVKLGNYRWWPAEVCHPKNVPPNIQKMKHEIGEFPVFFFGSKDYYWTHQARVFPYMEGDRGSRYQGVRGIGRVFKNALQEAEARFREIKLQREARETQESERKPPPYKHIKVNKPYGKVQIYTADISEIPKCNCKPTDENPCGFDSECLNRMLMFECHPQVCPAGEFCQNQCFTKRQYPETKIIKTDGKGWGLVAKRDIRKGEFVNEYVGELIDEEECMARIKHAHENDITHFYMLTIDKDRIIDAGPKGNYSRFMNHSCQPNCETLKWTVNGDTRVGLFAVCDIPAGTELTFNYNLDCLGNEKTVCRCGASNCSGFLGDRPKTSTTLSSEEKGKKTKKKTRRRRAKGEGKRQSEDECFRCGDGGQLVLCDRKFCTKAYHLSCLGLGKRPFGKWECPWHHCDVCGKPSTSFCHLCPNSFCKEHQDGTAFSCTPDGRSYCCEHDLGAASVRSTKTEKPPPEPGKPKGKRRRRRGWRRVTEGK

[8] = loss of viability in HepG2 cells – cell-based, CellTiter-Glo, cherry-picked, cytotoxicity control for Shn3 inhibitor project, dose response (AID 624134); format: functional
Large T antigen = Large T antigen (Simian virus 40, UniProt P03070); format: functional, Betapolyomavirus macacae;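 note: Confirmatory-stage PubChem screen for compounds that inhibit SV40 T antigen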
[9] = reduction of Shn3 3'UTR-driven luciferase in osteoblasts – cell-based, Clone20 osteoblasts, firefly luciferase, cherry-picked, dose response (AID 624132); format: functional;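 note: firefly luciferase luminescence from reporter carrying the Shn3 3'UTR in osteoblasts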
[10] = target: Glucose-6-phosphate 1-dehydrogenase (Homo sapiens, UniProt P11413); test: inhibition of Homo sapiens G6PD, dose series – biochemical, fluorescence, selectivity assay for P. falciparum G6PD inhibitor project, dose response (AID 504792); format: functional
[11] = target: T4, Rac GTPase-activating protein 1 (Homo sapiens, UniProt Q9H0H5); test: blockers of MgcRacGAP-driven Rac1 GTP hydrolysis – biochemical, ADP Hunter fluorescence, primary and confirmatory, confirmation (AID 624330); format: functional
T4 sequence (Q9H0H5 whole entry): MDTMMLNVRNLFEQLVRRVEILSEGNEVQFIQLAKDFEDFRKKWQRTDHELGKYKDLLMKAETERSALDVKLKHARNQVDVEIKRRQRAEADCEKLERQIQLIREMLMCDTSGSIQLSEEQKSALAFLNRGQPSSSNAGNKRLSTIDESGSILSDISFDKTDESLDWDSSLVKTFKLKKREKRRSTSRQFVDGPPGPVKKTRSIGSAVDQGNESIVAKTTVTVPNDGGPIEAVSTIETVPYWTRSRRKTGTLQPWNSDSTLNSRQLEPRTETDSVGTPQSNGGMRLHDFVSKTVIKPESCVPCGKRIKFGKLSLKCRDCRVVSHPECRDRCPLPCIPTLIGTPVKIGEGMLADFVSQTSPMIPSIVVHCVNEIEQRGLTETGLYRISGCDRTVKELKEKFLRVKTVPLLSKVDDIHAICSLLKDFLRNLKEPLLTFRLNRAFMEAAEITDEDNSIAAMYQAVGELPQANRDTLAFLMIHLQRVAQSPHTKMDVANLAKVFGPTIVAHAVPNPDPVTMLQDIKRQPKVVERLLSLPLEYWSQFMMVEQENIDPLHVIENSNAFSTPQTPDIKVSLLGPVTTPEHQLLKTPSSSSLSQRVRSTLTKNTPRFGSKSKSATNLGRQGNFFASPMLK

[12] = viability loss in HeLa cells – cytotoxicity control for MgcRacGAP inhibitor project, dose response (AID 624300); format: functional
Streptokinase A = target: T5, Streptokinase A (Streptococcus pyogenes serotype M1, UniProt P10520); test: viability-normalized secreted streptokinase activity reduction – plasminogen activation absorbance, OD405, dose response (AID 1914); format: functional, Streptococcus pyogenes M1 GAS;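 note: secreted streptokinase activity via plasminogen activation per viability signal from cell pellet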
T5 sequence (P10520 whole entry): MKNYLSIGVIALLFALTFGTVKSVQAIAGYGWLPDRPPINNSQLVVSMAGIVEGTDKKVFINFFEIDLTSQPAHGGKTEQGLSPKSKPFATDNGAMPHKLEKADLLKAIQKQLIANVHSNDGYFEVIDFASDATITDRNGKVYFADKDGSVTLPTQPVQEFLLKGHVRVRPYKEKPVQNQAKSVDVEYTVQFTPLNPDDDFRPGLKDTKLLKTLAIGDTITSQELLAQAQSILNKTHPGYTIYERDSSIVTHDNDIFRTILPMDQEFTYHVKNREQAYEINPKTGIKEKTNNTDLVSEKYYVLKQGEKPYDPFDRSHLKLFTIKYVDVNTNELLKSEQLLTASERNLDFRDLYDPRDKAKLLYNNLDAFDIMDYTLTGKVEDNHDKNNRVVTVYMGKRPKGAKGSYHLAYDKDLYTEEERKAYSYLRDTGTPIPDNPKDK

Streptococcus = test: GAS UMAA2166 growth inhibition – luminescence, BacTiterGlo, counter-screen for streptokinase expression inhibitor project, dose response (AID 1915); format: functional, organism-based;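 note: potency for reduction of bacterial viability or growth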
[13] = test system: Streptococcus sp. 'group A'; test: Streptococcus pyogenes SK(-)GAS viability under kanamycin – luminescence, BacTiterGlo, confirmation, counter-screen for streptokinase expression inhibitor project, dose response (AID 1900); format: functional, organism-based
HEK293 = test: EBV LMP1 TES2 canonical NF-kB signalling blockers – cell-based, HEK293, luciferase, cherry-pick, dose response (AID 588343); format: functional; conditions: Homo sapiens
[14] = target: T6, Corticotropin-releasing factor receptor 2/Corticotropin-releasing factor-binding protein (Homo sapiens, UniProt P24387+Q13324); test: activators of CRF receptor 2 with binding protein – uHTS hits, confirmation (AID 602473); format: functional; conditions: read-out: EC50_Mean
T6 sequence (Q13324 whole entry): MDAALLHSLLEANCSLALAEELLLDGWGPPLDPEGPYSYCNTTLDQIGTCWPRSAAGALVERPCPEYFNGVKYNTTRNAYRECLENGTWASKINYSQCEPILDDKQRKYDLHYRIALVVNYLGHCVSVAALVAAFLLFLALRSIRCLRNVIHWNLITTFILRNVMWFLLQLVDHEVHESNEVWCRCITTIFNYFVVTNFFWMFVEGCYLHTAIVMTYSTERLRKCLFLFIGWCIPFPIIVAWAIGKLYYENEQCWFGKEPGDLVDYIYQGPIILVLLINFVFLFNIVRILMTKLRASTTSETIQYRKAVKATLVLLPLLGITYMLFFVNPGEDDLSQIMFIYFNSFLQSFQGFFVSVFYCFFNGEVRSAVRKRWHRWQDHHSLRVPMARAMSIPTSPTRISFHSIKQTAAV
T6 sequence (P24387 whole entry): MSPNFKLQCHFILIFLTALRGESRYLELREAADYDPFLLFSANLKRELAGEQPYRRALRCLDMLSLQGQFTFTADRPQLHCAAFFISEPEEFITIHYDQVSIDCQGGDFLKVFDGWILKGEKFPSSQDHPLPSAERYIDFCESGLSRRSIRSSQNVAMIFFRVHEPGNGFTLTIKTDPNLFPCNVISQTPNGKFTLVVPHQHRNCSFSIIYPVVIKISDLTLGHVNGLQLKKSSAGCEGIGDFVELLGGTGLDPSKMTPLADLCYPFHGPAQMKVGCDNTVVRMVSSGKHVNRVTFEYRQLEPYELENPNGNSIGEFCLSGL

[15] = target: T6, Corticotropin-releasing factor receptor 2/Corticotropin-releasing factor-binding protein; test: Dose Response confirmation of uHTS hits for small molecule antagonists of the CRF-binding protein and CRF-R2 receptor complex.; format: functional; conditions: read-out: IC50_Mean

Chain of Peroxisome proliferator-activated receptor gamma/Nuclear receptor coactivator 3 (P37231 whole entry): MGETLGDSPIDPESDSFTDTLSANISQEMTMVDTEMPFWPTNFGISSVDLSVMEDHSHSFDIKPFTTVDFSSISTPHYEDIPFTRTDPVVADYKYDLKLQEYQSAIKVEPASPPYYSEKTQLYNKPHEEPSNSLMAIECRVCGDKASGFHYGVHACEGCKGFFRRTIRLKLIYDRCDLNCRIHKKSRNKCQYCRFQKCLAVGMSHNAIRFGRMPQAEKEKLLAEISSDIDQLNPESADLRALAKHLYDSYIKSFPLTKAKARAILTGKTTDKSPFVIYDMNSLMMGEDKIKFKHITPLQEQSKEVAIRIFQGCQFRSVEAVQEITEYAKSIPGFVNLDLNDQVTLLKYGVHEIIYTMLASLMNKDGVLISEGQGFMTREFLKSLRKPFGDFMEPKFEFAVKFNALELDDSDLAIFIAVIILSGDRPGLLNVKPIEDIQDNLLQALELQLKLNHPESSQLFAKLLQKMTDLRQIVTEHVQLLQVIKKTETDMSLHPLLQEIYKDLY
Chain of Peroxisome proliferator-activated receptor gamma/Nuclear receptor coactivator 3 (Q9Y6Q9 whole entry, further chain): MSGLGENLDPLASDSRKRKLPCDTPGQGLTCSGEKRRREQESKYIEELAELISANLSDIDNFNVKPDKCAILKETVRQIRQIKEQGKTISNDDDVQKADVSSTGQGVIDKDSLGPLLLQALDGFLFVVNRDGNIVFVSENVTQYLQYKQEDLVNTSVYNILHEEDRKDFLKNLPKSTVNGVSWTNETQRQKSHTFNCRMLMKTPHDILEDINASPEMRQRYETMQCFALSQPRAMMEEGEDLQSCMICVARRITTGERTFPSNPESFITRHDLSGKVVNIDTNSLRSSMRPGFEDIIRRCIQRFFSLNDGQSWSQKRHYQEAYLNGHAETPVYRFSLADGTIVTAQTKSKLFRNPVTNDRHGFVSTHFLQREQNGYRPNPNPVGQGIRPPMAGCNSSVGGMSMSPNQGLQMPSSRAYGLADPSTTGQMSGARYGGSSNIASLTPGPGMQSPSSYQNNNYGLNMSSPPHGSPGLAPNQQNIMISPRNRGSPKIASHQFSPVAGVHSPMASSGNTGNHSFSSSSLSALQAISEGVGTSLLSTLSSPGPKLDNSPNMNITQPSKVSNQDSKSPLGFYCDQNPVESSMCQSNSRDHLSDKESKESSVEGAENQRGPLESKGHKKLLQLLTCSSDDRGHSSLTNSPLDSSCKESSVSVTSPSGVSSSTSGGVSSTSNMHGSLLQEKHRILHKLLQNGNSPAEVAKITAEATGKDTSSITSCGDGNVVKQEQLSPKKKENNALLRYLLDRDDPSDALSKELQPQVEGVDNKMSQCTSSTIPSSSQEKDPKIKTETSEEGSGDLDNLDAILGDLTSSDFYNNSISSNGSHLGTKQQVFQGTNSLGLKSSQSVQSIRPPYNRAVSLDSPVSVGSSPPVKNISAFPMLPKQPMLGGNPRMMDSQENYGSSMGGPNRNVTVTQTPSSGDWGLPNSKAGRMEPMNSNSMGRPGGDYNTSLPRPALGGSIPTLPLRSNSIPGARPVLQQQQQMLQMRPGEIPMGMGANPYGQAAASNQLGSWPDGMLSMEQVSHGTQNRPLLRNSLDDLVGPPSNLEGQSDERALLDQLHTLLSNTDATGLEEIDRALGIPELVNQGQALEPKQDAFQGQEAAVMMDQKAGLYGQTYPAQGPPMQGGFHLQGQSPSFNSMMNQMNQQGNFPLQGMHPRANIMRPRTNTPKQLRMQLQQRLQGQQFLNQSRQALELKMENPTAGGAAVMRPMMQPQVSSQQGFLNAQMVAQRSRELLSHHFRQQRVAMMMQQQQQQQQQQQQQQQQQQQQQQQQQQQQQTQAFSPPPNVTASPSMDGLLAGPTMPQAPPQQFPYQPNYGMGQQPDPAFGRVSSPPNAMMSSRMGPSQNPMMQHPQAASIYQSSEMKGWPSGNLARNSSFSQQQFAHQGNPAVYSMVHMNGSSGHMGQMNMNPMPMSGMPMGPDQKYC
Chain of Peroxisome proliferator-activated receptor gamma/Nuclear receptor coactivator 2 (P37231 whole entry): as the sequence (P37231 whole entry) above
Chain of Peroxisome proliferator-activated receptor gamma/Nuclear receptor coactivator 2 (Q15596 whole entry, further chain): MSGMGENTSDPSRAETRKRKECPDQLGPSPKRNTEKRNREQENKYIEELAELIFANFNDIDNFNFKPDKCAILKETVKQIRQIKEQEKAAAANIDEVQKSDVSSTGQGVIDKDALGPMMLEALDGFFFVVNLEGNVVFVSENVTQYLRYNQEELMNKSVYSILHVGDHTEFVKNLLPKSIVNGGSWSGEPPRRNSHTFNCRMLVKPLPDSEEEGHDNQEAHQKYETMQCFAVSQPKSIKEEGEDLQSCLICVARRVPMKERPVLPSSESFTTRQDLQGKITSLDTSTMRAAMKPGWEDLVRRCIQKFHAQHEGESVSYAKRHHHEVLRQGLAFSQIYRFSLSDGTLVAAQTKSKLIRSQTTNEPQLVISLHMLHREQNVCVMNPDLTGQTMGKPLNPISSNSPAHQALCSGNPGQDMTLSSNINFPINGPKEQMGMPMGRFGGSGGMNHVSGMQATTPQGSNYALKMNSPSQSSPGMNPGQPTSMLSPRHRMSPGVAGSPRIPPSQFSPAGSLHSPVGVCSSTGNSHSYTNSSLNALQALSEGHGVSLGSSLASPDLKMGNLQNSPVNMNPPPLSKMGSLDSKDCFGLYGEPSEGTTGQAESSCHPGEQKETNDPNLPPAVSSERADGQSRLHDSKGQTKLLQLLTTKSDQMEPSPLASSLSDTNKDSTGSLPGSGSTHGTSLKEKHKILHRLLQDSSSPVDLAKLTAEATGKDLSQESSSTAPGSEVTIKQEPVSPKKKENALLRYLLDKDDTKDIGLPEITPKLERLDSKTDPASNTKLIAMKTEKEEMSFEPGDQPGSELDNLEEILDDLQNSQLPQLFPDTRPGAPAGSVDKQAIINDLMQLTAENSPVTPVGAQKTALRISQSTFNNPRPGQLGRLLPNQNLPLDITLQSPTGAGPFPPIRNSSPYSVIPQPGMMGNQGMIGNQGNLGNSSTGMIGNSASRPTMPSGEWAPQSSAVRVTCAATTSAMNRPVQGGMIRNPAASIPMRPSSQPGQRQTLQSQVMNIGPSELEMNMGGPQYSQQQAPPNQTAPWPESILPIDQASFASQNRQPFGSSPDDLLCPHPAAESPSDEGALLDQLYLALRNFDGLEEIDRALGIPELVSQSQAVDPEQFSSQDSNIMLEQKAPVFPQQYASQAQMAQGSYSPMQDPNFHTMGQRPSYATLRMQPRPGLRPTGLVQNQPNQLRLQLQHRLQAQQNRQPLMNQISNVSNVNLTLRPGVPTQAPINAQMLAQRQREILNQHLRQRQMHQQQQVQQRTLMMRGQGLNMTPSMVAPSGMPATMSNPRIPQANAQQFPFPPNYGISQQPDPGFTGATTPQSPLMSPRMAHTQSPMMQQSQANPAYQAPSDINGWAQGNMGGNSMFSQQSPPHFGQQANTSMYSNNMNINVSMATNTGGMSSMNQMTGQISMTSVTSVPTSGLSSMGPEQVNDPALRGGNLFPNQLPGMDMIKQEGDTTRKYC
Chain of Glucose-6-phosphate 1-dehydrogenase (P11413 whole entry): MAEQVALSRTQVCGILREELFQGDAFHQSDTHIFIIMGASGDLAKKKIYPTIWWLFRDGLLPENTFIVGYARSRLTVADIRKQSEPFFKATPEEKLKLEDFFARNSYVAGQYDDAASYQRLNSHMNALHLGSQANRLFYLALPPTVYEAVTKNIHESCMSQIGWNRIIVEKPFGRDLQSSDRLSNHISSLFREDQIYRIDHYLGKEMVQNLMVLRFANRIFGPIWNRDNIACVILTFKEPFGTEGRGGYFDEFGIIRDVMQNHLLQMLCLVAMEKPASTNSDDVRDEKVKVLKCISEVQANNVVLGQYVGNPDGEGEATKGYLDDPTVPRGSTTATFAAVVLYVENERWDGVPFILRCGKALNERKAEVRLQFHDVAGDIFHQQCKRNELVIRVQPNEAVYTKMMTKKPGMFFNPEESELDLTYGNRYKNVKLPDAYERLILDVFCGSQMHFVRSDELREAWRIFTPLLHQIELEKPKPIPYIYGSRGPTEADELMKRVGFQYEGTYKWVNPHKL

SMILES: COCCNC(=O)c1ccc2c(c1)nc(C)n2-c1cccc(F)c1
- AC50 [1]: 98.8 µM (active)

SMILES: Cn1c(=O)cc(SCC(=O)N2CCN(C(=O)c3ccco3)CC2)c2ccccc21
- EC50 [2]: > 195 µM (not active)
- EC50 [3]: > 79.4 µM (not active)
- EC50 [4]: > 79.4 µM (not active)
- EC50 [5]: > 79.4 µM (inactive)

SMILES: COc1ccc(C(=O)CNc2ccccc2CO)cc1
- IC50 [6]: 26.1 µM (not active)
- EC50 (Beta-galactosidase): > 40 µM (inactive)

SMILES: CC1=NOC(=O)/C1=C\c1ccc(-c2ccccc2Br)o1
- AC50 [7]: > 20 µM (inactive)
- AC50 [8]: > 70 µM (inactive)
- IC50 (Large T antigen): 16.4 µM (active)
- AC50 [9]: 6.48 µM (active)
- EC50 [3]: > 79.4 µM (not active)
- EC50 [4]: 5.02 µM (active)
- IC50 [10]: > 80 µM (inactive)
- EC50 [5]: 9.24 µM (active)

SMILES: Cc1[nH][nH]c(=O)c1N=Nc1ccccc1Cl
- AC50 [1]: 28.9 µM (active)

SMILES: Cc1ccnc(Nc2nc(-c3ccc(O)c(O)c3)cs2)c1
- AC50 [1]: 10.1 µM (active)
- IC50 [11]: 41.3 µM (active)
- CC50 [12]: 69.5 µM (active)

SMILES: CCCCCCCCOC(=O)/C=C/c1c(C)nc(O)nc1O
- EC50 (Streptokinase A): 2.38 µM (active)
- EC50 (Streptococcus): > 150 µM (not active)
- EC50 [13]: 1.76 µM (active)
- AC50 (HEK293): 2.59 µM (active)

SMILES: NC(Cc1ccc(O)cc1)C(=O)NN=Cc1ccc(N(CCCl)CCCl)cc1 (stereo unspecified)
- EC50 [14]: > 53 µM (inactive)
- IC50 [15]: > 47.1 µM (inactive)
- AC50 (HEK293): 31.4 µM (active)
